Data: patent publication US20090124610A1, “PHARMACEUTICAL COMPOUNDS” (priority 2006, published 2009)
pIC50: −log10 of the molar value. Structures can show the parent of a compound that is named as a salt.

Molecular target: T1, PKB-PIF (Homo sapiens, UniProt P31751)
T1 construct: PIF (fusion partner); made in house
Test: Measurement of PKB kinase inhibitory activity (IC50), 33P-ATP filter plate assay
Type: biochemical
Details: 0.6 nM enzyme, 30 μM ATP/γ33P-ATP, 25 μM AKTide-2T substrate, 20 minutes
From the text: The inhibition of protein kinase B (PKB) activity by compounds can be determined determined essentially as described by Andjelkovic et al. (Mol. Cell. Biol. 19, 5061-5072 (1999)) but using a fusion protein described as PKB-PIF and described in full by Yang et al (Nature Structural Biology 9, 940-944 (2002)). The protein is purified and activated with PDK1 as described by Yang et al. The peptide AKTide-2T (H-A-R-K-R-E-R-T-Y-S-F-G-H-H-A-OH) obtained from Calbiochem (#123900) is used as a substrate. A final concentration of 0.6 nM enzyme is used in a buffer that includes 20 mM MOPS pH 7.2, 30 μM ATP/γ^33P-ATP and 25 μM substrate. Compounds are added in DMSO solution to a final DMSO concentration of 2.5%. The reaction is allowed to proceed for 20 minutes before addition of excess orthophosphoric acid to quench activity. The reaction mixture is transferred to a phosphocellulose filter plate where the peptide binds and the unused ATP is washed away. After washing, scintillant is added and the incorporated activity measured by scintillation counting.
The % inhibition of the PKB activity is calculated and plotted in order to determine the concentration of test compound required to inhibit 50% of the PKB activity (IC50).

T1 sequence (P31751 with tags, fused parts or gaps limits assumed): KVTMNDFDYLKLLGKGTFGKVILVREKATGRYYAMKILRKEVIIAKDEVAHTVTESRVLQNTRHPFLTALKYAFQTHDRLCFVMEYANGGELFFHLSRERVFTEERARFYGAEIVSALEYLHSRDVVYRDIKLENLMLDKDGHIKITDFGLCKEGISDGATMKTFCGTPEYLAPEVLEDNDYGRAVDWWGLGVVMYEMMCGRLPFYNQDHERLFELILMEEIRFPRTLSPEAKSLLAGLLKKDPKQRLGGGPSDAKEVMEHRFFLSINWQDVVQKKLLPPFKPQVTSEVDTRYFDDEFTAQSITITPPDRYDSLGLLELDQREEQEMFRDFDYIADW

pIC50 | SMILES
> 6.00 | CNCC(c1ccc(Cl)cc1)c1ccc(-c2ncnc3ccsc23)cc1 (stereo not shown) [Example 1, [2-(4-Chloro-phenyl)-2-(4-thieno[3,2-d]-pyrimidin-4-yl-phenyl)-ethyl]-methyl-amine bis-trifluoroacetate]
> 6.00 | NCCC(c1ccc(Cl)cc1)c1ccc(-c2ncnc3ccsc23)cc1 (stereo not shown) [Example 2, 3-(4-Chloro-phenyl)-3-(4-thieno[3,2-d]pyrimidin-4-yl-phenyl)-propylamine]
> 6.00 | NCC(c1ccc(Cl)cc1)N1CCN(c2ncnc3ccsc23)CC1 (stereo not shown) [Example 3, 2-(4-Chloro-phenyl)-2-(4-thieno[3,2-d]pyrimidin-4-yl-piperazin-1-yl)-ethylamine formate]
> 6.00 | Clc1ccc(C2(c3ccc(-c4ncnc5ccsc45)cc3)CCNCC2)cc1 [Example 4, 4-{4-[4-(4-Chloro-phenyl)-piperidin-4-yl]-phenyl}-thieno[3,2-d]pyrimidine formate]
> 6.00 | NC1(C(=O)NCc2ccc(Cl)cc2)CCN(c2ncnc3ccsc23)CC1 [Example 5, 4-Amino-1-thieno[3,2-d]pyrimidin-4-yl-piperidine-4-carboxylic acid 4-chloro-benzylamide]
> 5.30 | NC1CCN(c2ncnc3ccsc23)CC1 [Example 6, 1-Thieno[3,2-d]pyrimidin-4-ylpiperidin-4-ylamine]
> 6.00 | NC1(Cc2ccc(Cl)cc2)CCN(c2ncnc3ccsc23)CC1 [Example 7, 4-(4-Chlorobenzyl)-1-thieno[3,2-d]pyrimidin-4-ylpiperidin-4-ylamine]
> 6.00 | NC(c1ccc(Cl)cc1)C1CCN(c2ncnc3ccsc23)CC1 (stereo not shown) [Example 8, C-(4-Chlorophenyl)-C-(1-thieno[3,2-d]pyrimidin-4-ylpiperidin-4-yl)methylamine]
> 4.30 | NC1CCN(c2ncnc3sccc23)CC1 [Example 9, 1-Thieno[2,3-d]pyrimidin-4-ylpiperidin-4-ylamine]
> 4.30 | NC1CCN(c2ccnc3c2C(=O)C(=O)N3)CC1 [Example 10, 4-(4-Amino-piperidin-1-yl)-1H-pyrrolo[2,3-b]pyridine-2,3-dione]
> 5.30 | NC1(Cc2ccc(Cl)cc2)CCN(c2ccnc3c2OCC(=O)N3)CC1 [Example 11, 8-[4-Amino-4-(4-chloro-benzyl)-piperidin-1-yl]-4H-pyrido[3,2-b][1,4]oxazin-3-one]

Molecular target: T2, PKA catalytic domain (Homo sapiens, UniProt P17612)
T2 construct: using the PKA catalytic domain from Upstate Biotechnology (#14-440); purchased Upstate Biotechnology 14-440
Test: Measurement of PKA kinase inhibitory activity (IC50), 33P-ATP filter plate assay
Type: biochemical
Details: 1 nM enzyme, 40 μM ATP/γ33P-ATP, 5 μM substrate […], 20 minutes
Description: Compounds of the invention can be tested for PK inhibitory activity using the PKA catalytic domain from Upstate Biotechnology (#14-440) and the 9 residue PKA specific peptide ([…]), also from Upstate Biotechnology (#12-257), as the substrate. A final concentration of 1 nM enzyme is used in a buffer that includes 20 mM MOPS pH 7.2, 40 μM ATP/γ^33P-ATP and 5 μM substrate. Compounds are added in dimethylsulphoxide (DMSO) solution to a final DMSO concentration of 2.5%. The reaction is allowed to proceed for 20 minutes before addition of excess orthophosphoric acid to quench activity. Unincorporated γ^33P-ATP is then separated from phosphorylated proteins on a Millipore MAPH filter plate. The plates are washed, scintillant is added and the plates are then subjected to counting on a Packard Topcount.
The % inhibition of the PKA activity is calculated and plotted in order to determine the concentration of test compound required to inhibit 50% of the […] activity (IC50).

pIC50 | SMILES
> 6.00 | CNCC(c1ccc(Cl)cc1)c1ccc(-c2ncnc3ccsc23)cc1 (stereo not shown) [Example 1, [2-(4-Chloro-phenyl)-2-(4-thieno[3,2-d]-pyrimidin-4-yl-phenyl)-ethyl]-methyl-amine bis-trifluoroacetate]
> 6.00 | Clc1ccc(C2(c3ccc(-c4ncnc5ccsc45)cc3)CCNCC2)cc1 [Example 4, 4-{4-[4-(4-Chloro-phenyl)-piperidin-4-yl]-phenyl}-thieno[3,2-d]pyrimidine formate]
